Test results taken from ChEMBL document CHEMBL1201862, “PubChem BioAssay data set” (2004).
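96-well plates; 48 h exposure; 5 concentrations. Endpoints by linear interpolation between flanking doses. Not reached: highest tested concentration assigned. GI50 = concentration required for 50% inhibition of growth.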 Calls of active or inactive are those of the source. Cut-off read from the data, not from the text of the source: active = GI50 up to about 1.1 µM and inactive = higher.

Legend:
Test in all cases: growth of human tumour cells (NCI), 48 h
NCI-H226 = system: NCI-H226
NCI-H522 = system: NCI-H522
RPMI-8226 = system: RPMI-8226
UACC-257 = system: UACC-257
COLO 205 = system: COLO 205
MCF7 = system: MCF7
CAKI-1 = system: CAKI-1
RXF 393 = system: RXF 393
SW-620 = system: SW-620
SK-MEL-28 = system: SK-MEL-28
UO-31 = system: UO-31
HL-60 = system: HL-60
A549 = system: A549
OVCAR-8 = system: OVCAR-8
SF-539 = system: SF-539
HCT-15 = system: HCT-15
SF-268 = system: SF-268
HOP-62 = system: HOP-62
DU-145 = system: DU-145
HT-29 = system: HT-29
OVCAR-3 = system: OVCAR-3
MOLT-4 = system: MOLT-4
M14 = system: M14
SK-OV-3 = system: SK-OV-3
EKVX = system: EKVX
SF-295 = system: SF-295
SR = system: SR
HOP-92 = system: HOP-92
MDA-N = system: MDA-N
BT-549 = system: BT-549
SN12C = system: SN12C
ACHN = system: ACHN
HCC 2998 = system: HCC 2998
UACC-62 = system: UACC-62
KM12 = system: KM12
T47D = system: T47D
OVCAR-4 = system: OVCAR-4
Hs-578T = system: Hs-578T
SK-MEL-2 = system: SK-MEL-2
HCT-116 = system: HCT-116
Malme-3M = system: Malme-3M
SNB-75 = system: SNB-75
SK-MEL-5 = system: SK-MEL-5
K562 = system: K562
U-251 = system: U-251
NCI-H23 = system: NCI-H23
SNB-19 = system: SNB-19
IGROV-1 = system: IGROV-1
NCI/ADR-RES = system: NCI/ADR-RES
PC-3 = system: PC-3
TK-10 = system: TK-10
MDA-MB-435 = system: MDA-MB-435
786-0 = system: 786-0
CCRF-CEM = system: CCRF-CEM
LOX IMVI = system: LOX IMVI
OVCAR-5 = system: OVCAR-5
MDA-MB-231 = system: MDA-MB-231
NCI-H460 = system: NCI-H460
A498 = system: A498

With `O=C1NC(N2CCCC(CO)C2)=N/C1=C\c1ccc(O)cc1` (stereo not drawn) the GI50 (NCI-H226) was > 100 µM (inactive), the GI50 (NCI-H522) was > 100 µM (inactive) and the GI50 (RPMI-8226) was > 100 µM (inactive). For the same compound, the GI50 (UACC-257) was > 100 µM (inactive), the GI50 (COLO 205) was > 100 µM (inactive) and the GI50 (MCF7) was > 100 µM (inactive). For the same compound, the GI50 (CAKI-1) was > 100 µM (inactive), the GI50 (RXF 393) was > 100 µM (inactive) and the GI50 (SW-620) was > 100 µM (inactive). The GI50 (SK-MEL-28) was > 100 µM (inactive), the GI50 (UO-31) was > 100 µM (inactive) and the GI50 (HL-60) was > 100 µM (inactive). For the same compound, the GI50 (A549) was > 100 µM (inactive), the GI50 (OVCAR-8) was > 100 µM (inactive) and the GI50 (SF-539) was > 100 µM (inactive). The GI50 (HCT-15) was > 100 µM, the GI50 (SF-268) was > 100 µM (inactive) and the GI50 (HOP-62) was > 100 µM (inactive). For the same compound, the GI50 (DU-145) was > 100 µM (inactive), the GI50 (HT-29) was > 100 µM (inactive) and the GI50 (OVCAR-3) was > 100 µM (inactive). For the same compound, the GI50 (MOLT-4) was > 100 µM (inactive), the GI50 (M14) was > 100 µM (inactive) and the GI50 (SK-OV-3) was > 100 µM (inactive). For the same compound, the GI50 (EKVX) was > 100 µM (inactive), the GI50 (SF-295) was > 100 µM (inactive) and the GI50 (SR) was > 100 µM (inactive). The GI50 (HOP-92) was > 100 µM (inactive), the GI50 (MDA-N) was > 100 µM (inactive) and the GI50 (BT-549) was > 100 µM (inactive). The GI50 (SN12C) was > 100 µM (inactive), the GI50 (ACHN) was > 100 µM (inactive) and the GI50 (HCC 2998) was > 100 µM (inactive). For the same compound, the GI50 (UACC-62) was > 100 µM (inactive), the GI50 (KM12) was > 100 µM (inactive) and the GI50 (T47D) was 42 µM (inactive). The GI50 (OVCAR-4) was > 100 µM (inactive), the GI50 (Hs-578T) was > 100 µM (inactive) and the GI50 (SK-MEL-2) was > 100 µM (inactive). The GI50 (HCT-116) was > 100 µM (inactive), the GI50 (Malme-3M) was > 100 µM (inactive) and the GI50 (SNB-75) was > 100 µM (inactive). For the same compound, the GI50 (SK-MEL-5) was > 100 µM (inactive), the GI50 (K562) was > 100 µM (inactive) and the GI50 (U-251) was > 100 µM (inactive). For the same compound, the GI50 (NCI-H23) was > 100 µM (inactive), the GI50 (SNB-19) was > 100 µM (inactive) and the GI50 (IGROV-1) was > 100 µM (inactive). The GI50 (NCI/ADR-RES) was > 100 µM (inactive), the GI50 (PC-3) was > 100 µM (inactive) and the GI50 (TK-10) was > 100 µM (inactive). The GI50 (MDA-MB-435) was > 100 µM (inactive), the GI50 (786-0) was > 100 µM (inactive) and the GI50 (CCRF-CEM) was > 100 µM (inactive). The GI50 (LOX IMVI) was > 100 µM (inactive), the GI50 (OVCAR-5) was > 100 µM (inactive) and the GI50 (MDA-MB-231) was > 100 µM (inactive).
`COC(=O)[C@]12CC[C@H]3CN(C(=O)OCc4ccccc4)[C@H]([C@H]31)[C@H](c1ccccc1)N2` was tested, and the GI50 (NCI-H226) was 86.7 µM (inactive), the GI50 (NCI-H522) was 52.1 µM (inactive) and the GI50 (RPMI-8226) was 36.1 µM (inactive). For the same compound, the GI50 (UACC-257) was 39.5 µM (inactive), the GI50 (COLO 205) was 92.9 µM (inactive) and the GI50 (MCF7) was 67.6 µM (inactive). For the same compound, the GI50 (CAKI-1) was 70.6 µM (inactive), the GI50 (RXF 393) was 59.6 µM (inactive) and the GI50 (NCI-H460) was > 100 µM (inactive). For the same compound, the GI50 (SW-620) was > 100 µM (inactive), the GI50 (SK-MEL-28) was > 100 µM (inactive) and the GI50 (UO-31) was 67.3 µM (inactive). For the same compound, the GI50 (HL-60) was 39.6 µM (inactive), the GI50 (A549) was 54.7 µM (inactive) and the GI50 (OVCAR-8) was 78.9 µM (inactive). The GI50 (SF-539) was > 100 µM (inactive), the GI50 (HCT-15) was 69.3 µM and the GI50 (SF-268) was > 100 µM (inactive). The GI50 (HOP-62) was > 100 µM (inactive), the GI50 (DU-145) was > 100 µM (inactive) and the GI50 (HT-29) was 74.8 µM (inactive). For the same compound, the GI50 (OVCAR-3) was 74.1 µM (inactive), the GI50 (MOLT-4) was 33 µM (inactive) and the GI50 (M14) was 70 µM (inactive). For the same compound, the GI50 (SK-OV-3) was > 100 µM (inactive), the GI50 (EKVX) was 53.5 µM (inactive) and the GI50 (SF-295) was 58.1 µM (inactive). For the same compound, the GI50 (SR) was 42.2 µM (inactive), the GI50 (HOP-92) was 72.3 µM (inactive) and the GI50 (MDA-N) was 57.3 µM (inactive). For the same compound, the GI50 (BT-549) was 85.5 µM (inactive), the GI50 (SN12C) was > 100 µM (inactive) and the GI50 (ACHN) was 92 µM (inactive). For the same compound, the GI50 (HCC 2998) was > 100 µM (inactive), the GI50 (UACC-62) was 55 µM (inactive) and the GI50 (KM12) was 72.6 µM (inactive). The GI50 (T47D) was 34.3 µM (inactive), the GI50 (OVCAR-4) was 64.7 µM (inactive) and the GI50 (Hs-578T) was > 100 µM (inactive). For the same compound, the GI50 (SK-MEL-2) was 59.7 µM (inactive), the GI50 (HCT-116) was 65.3 µM (inactive) and the GI50 (A498) was 80 µM (inactive). The GI50 (SNB-75) was > 100 µM (inactive), the GI50 (SK-MEL-5) was 22.9 µM (inactive) and the GI50 (K562) was 58.1 µM (inactive). For the same compound, the GI50 (U-251) was > 100 µM (inactive), the GI50 (NCI-H23) was 77.4 µM (inactive) and the GI50 (SNB-19) was > 100 µM (inactive). For the same compound, the GI50 (IGROV-1) was > 100 µM (inactive), the GI50 (NCI/ADR-RES) was 64.6 µM (inactive) and the GI50 (PC-3) was 43.2 µM (inactive). The GI50 (TK-10) was > 100 µM (inactive), the GI50 (MDA-MB-435) was 52 µM (inactive) and the GI50 (786-0) was > 100 µM (inactive). For the same compound, the GI50 (CCRF-CEM) was 41.3 µM (inactive), the GI50 (LOX IMVI) was > 100 µM (inactive) and the GI50 (OVCAR-5) was > 100 µM (inactive). The GI50 (MDA-MB-231) was 59.3 µM (inactive).
With `Cc1nc2ccccc2cc1C[N+]12CN3CN(CN(C3)C1)C2` the GI50 (NCI-H226) was 23.6 µM (inactive), the GI50 (NCI-H522) was 18.9 µM (inactive) and the GI50 (RPMI-8226) was 3.4 µM (inactive). The GI50 (UACC-257) was 18.4 µM (inactive), the GI50 (COLO 205) was 14.1 µM (inactive) and the GI50 (MCF7) was 4.29 µM (inactive). The GI50 (CAKI-1) was 27.5 µM (inactive), the GI50 (RXF 393) was 16.6 µM (inactive) and the GI50 (NCI-H460) was 18.2 µM (inactive). The GI50 (SW-620) was 5.35 µM (inactive), the GI50 (SK-MEL-28) was 18.7 µM (inactive) and the GI50 (UO-31) was 23.6 µM (inactive). The GI50 (A549) was 30.8 µM (inactive), the GI50 (OVCAR-8) was 30.3 µM (inactive) and the GI50 (SF-539) was 14.2 µM (inactive). For the same compound, the GI50 (HCT-15) was 15.2 µM, the GI50 (SF-268) was 22.7 µM (inactive) and the GI50 (HOP-62) was 24.5 µM (inactive). For the same compound, the GI50 (DU-145) was 26.2 µM (inactive), the GI50 (HT-29) was 15.7 µM (inactive) and the GI50 (OVCAR-3) was 28.1 µM (inactive). The GI50 (MOLT-4) was 34 µM (inactive), the GI50 (M14) was 18.5 µM (inactive) and the GI50 (SK-OV-3) was 32.7 µM (inactive). For the same compound, the GI50 (EKVX) was 23.3 µM (inactive), the GI50 (SF-295) was 22.9 µM (inactive) and the GI50 (SR) was 19 µM (inactive). For the same compound, the GI50 (HOP-92) was 45.2 µM (inactive), the GI50 (MDA-N) was 21.8 µM (inactive) and the GI50 (BT-549) was 19.3 µM (inactive). The GI50 (SN12C) was 18 µM (inactive), the GI50 (ACHN) was 17.1 µM (inactive) and the GI50 (HCC 2998) was 17.1 µM (inactive). For the same compound, the GI50 (UACC-62) was 17.2 µM (inactive), the GI50 (KM12) was 20.9 µM (inactive) and the GI50 (T47D) was 18.7 µM (inactive). The GI50 (OVCAR-4) was 22.3 µM (inactive), the GI50 (Hs-578T) was 35.6 µM (inactive) and the GI50 (SK-MEL-2) was 18.6 µM (inactive). The GI50 (HCT-116) was 5.21 µM (inactive), the GI50 (A498) was 22.8 µM (inactive) and the GI50 (Malme-3M) was 17.3 µM (inactive). For the same compound, the GI50 (SNB-75) was 17.9 µM (inactive), the GI50 (SK-MEL-5) was 18.4 µM (inactive) and the GI50 (K562) was 29.2 µM (inactive). For the same compound, the GI50 (U-251) was 12.1 µM (inactive), the GI50 (NCI-H23) was 17.5 µM (inactive) and the GI50 (SNB-19) was 23.8 µM (inactive). The GI50 (IGROV-1) was 31.4 µM (inactive), the GI50 (NCI/ADR-RES) was 22.4 µM (inactive) and the GI50 (PC-3) was 10.8 µM (inactive). For the same compound, the GI50 (TK-10) was 24.9 µM (inactive), the GI50 (MDA-MB-435) was 22.2 µM (inactive) and the GI50 (786-0) was 11.5 µM (inactive). For the same compound, the GI50 (CCRF-CEM) was 0.962 µM (active), the GI50 (LOX IMVI) was 14.7 µM (inactive) and the GI50 (OVCAR-5) was 23.8 µM (inactive). For the same compound, the GI50 (MDA-MB-231) was 16.4 µM (inactive).
